Source: patent publication US10597719B2, “Detection kit and simple method for detecting target nucleic acids” (National University Corporation Gunma University, priority 2015, dated 2020)
Where two headings read alike, the source gives them in different places.

Legend:
22AG = experiment: Fluorescence titration, binding of dye to 22AG; design: species or system human
Method: (§1) The following six kinds of G4-forming human-derived oligonucleotides were used:
(§2) telomere regions (22AG and 26Tel);
(§3) Each of the eight kinds of oligonucleotides (22AG, 26Tel, 27Myc, 22Kit, 20Src, 18Ras, ssDNA, and dsDNA) was dissolved in the buffer TRS50K, PBS150K, PBS140KM, or PBS153NM at a concentration of 21 μM, and denatured by heating at 95° C. (or at 40° C. for 18Ras) for 0.5 minute using a thermal cycler, followed by cooling the resulting solution to 25° C. at a rate of 0.5° C./minute to allow refolding. Each solution was diluted to an appropriate oligonucleotide concentration, and its aliquots (50 μL each) were incubated at 25° C. for 30 minutes, followed by mixing each aliquot with 20 μL of a solution of a dye (ThT, ThT-DB, or ThT-HE; 10.5 μM) in the buffer TRS50K, PBS150K, PBS140KM, or PBS153NM. These mixtures were incubated at 25° C. for 30 minutes. An emission spectrum of each dye was obtained by excitation at 415 nm and monitoring of fluorescence between 450 nm and 600 nm.
(§4) FIGS. 3-4 to 3-6 show relative fluorescence intensities as the peaks of the emitted light at 485 nm (ThT and ThT-HE) or 500 nm (ThT-DB) with respect to the intensity of the dye that interacted with dsDNA, which was taken as 1. The X-axis represents the oligonucleotide concentration.

22Kit = experiment: Fluorescence titration, binding of dye to 22Kit; design: species or system human
Method: as §1
the 87-nucleotide upstream region of the transcription initiation site of a proto-oncogene encoding tyrosine kinase (22Kit);
as §3, §4

dsDNA = experiment: Fluorescence titration, binding of dye to dsDNA standard; conditions: for Kd: n.d. cells; for emission of fluorescence in the presence of dsDNA: dye 3 μM in PBS153NM, dsDNA 0-15 μM (FIG. 2)
Method: (§5) Besides these sequences, the following two kinds of oligonucleotides were used as standards:
(§6) The ssDNA was used as a single-stranded DNA, and the cDNA was used as a double-stranded DNA (dsDNA) by mixing with the ssDNA at a ratio of 1:1.
as §3, §4

27Myc = experiment: Fluorescence titration, binding of dye to 27Myc; design: species or system human; conditions: for Kd: read-out: Kd 27Mye
Method: as §1
the nuclease-sensitive element region of the c-Myc P1 promoter (27Myc);
as §3, §4

18Ras = experiment: Fluorescence titration, binding of dye to 18Ras; design: species or system human
Method: as §1
the 5′-untranslated region of a human NRAS proto-oncogene transcript (18Ras).
as §3, §4

26Tel = experiment: Fluorescence titration, binding of dye to 26Tel; design: species or system human
Method: as §1, §2, §3, §4

20Src = experiment: Fluorescence titration, binding of dye to 20Src; design: species or system human; conditions: n.d. cells, read-out: Kd 20Sre
Method: as §1
a proto-oncogene encoding a nonreceptor tyrosine kinase (20Src); and
as §3, §4

ssDNA = experiment: Fluorescence titration, binding of dye to ssDNA standard; conditions: n.d. cells
Method: as §5, §6, §3, §4

target G4 = experiment: Affinity of dyes to the target G4, overall comparison from Table 1; type: binding, human; conditions: according to Table 1
Method: as §3, §4

Kd (22AG; buffer PBS150K) | Kd (22AG; buffer PBS153NM, n.d. cells) | Kd (22Kit; buffer PBS150K) | Kd (22Kit; buffer PBS153NM) | Kd (dsDNA; buffer PBS150K) | Kd (dsDNA; buffer PBS153NM) | Kd (27Myc; buffer PBS150K) | Kd (27Myc; buffer PBS153NM) | Kd (18Ras; buffer PBS150K) | Kd (18Ras; buffer PBS153NM) | Kd (26Tel; buffer PBS150K) | Kd (26Tel; buffer PBS153NM) | Kd (20Src; buffer PBS150K) | Kd (20Src; buffer PBS153NM) | Kd (ssDNA; buffer PBS150K) | Kd (ssDNA; buffer PBS153NM) | specificity to guanine quadruplex (27Myc; 27Myc versus dsDNA, PBS153NM (FIG. 2)) | Kd (26Tel; buffer PBS153NM, n.d. cells) | SMILES | emission of fluorescence in the presence of dsDNA (dsDNA) | affinity to the target G4 compared with ThT (target G4)
7.3 ± 0.3 µM | > 40 µM | 12.3 ± 1.8 µM | 7.2 ± 0.9 µM | > 40 µM | > 40 µM | 8.7 ± 1 µM | 7.2 ± 0.6 µM | 10.3 ± 3 µM | 16 ± 4.2 µM | 5 ± 0.8 µM | 25.3 ± 1.5 µM | > 40 µM | > 40 µM | > 40 µM | > 40 µM | – | – | Cc1ccc2c(c1)sc(-c1ccc(N(C)C)cc1)[n+]2C.[Cl-] [ThT, thioflavin T, reference compound] | considerable level of emission of fluorescence | –
17.6 ± 3.6 µM | > 40 µM | 40 ± 9 µM | 12.3 ± 1.8 µM | > 40 µM | > 40 µM | 23.9 ± 1.4 µM | 13.7 ± 1.4 µM | 20.9 ± 2.8 µM | 28.5 ± 9.7 µM | 10.6 ± 2.9 µM | – | > 40 µM | > 40 µM | > 40 µM | > 40 µM | high specificity to guanine quadruplex | > 40 µM | Cc1ccc2c(c1)sc(-c1ccc(N(C)C)cc1)[n+]2CCO [ThT-HE] | hardly show fluorescence | generally lower than affinity of ThT
